Patent US10822317B2, “Methods and compositions for wound healing” (QBiotics Limited, priority 2013, dated 2020)

Experiments:
neutrophils = assay: Induction of reactive oxygen burst by neutrophils; assay type: cell-based, human; conditions: 1 ng/ml to 100 μg/ml; 15 min; DHE, flow cytometry
Experimental: Neutrophils were isolated from fresh blood of a healthy human donor by lysis of a red blood cell pellet that had been obtained by Ficoll-Paque sedimentation. The neutrophils (˜4×10^6 cells/ml) were incubated with 10 μg/ml dihydroethidium (DHE) (Sigma-Aldrich) in complete culture medium at 37° C. for 15 min alongside an aliquot of unstained cells to be tested as unstained control. This incubation was followed by treatment with Compound 1 at a range of concentrations (0, 1 ng/ml, 10 ng/ml, 100 ng/ml, 1 μg/ml, 10 μg/ml, 100 μg/ml) for 15 min. The generation of reactive oxygen species following incubation was determined using a FACS Canto flow cytometer to measure fluorescence due to oxidation of DHE to the ethidium ion.

[1] = tested on: severe lacerated wound on the head; assay: Veterinary case study 10, lacerated head wound of a spectacled flying fox; assay type: in vivo, Pteropus conspicillatus
Experimental: Seven dogs (Canis lupus familiaris) and one tree kangaroo (Dendrolagus humholzii) with chronic, non-healing wounds that were unresponsive to current veterinary standards-of-care for these indications were treated with Compound 1 by independent veterinarians. A second tree kangaroo and a spectacled flying fox (Pteropus conspicillatus) with wounds unsuited for initial treatment with current standards-of-care were also treated with Compound 1. All cases were managed as open wounds without the use of dressings or other bandaging during the course of treatment with Compound 1 and the subsequent period of wound resolution. Unless stated in individual case studies, no concomitant medications were used over the course of treatments with Compound 1.
Case notes: • The patient presented as a 4 month old flying fox with a deep penetrating wound on the head […] caused by entanglement in barbed wire. • In the opinion of the treating veterinarian who had extensive experience in wildlife injuries (including flying foxes) normal standard of care treatments were likely to be highly problematic in causing the right eye to lose shape and not be able to close, either due to excessive scar tissue formation associated with surgery or the extent of granulation required if wound healing dressings were applied. • Compound 1 was applied to the wound in 3 applications of 0.1 mL of 5 mg/mL gel formulation over a 28 day period (Days 1, 10 and 28). […] A very healthy granulation bed was present.

[2] = tested on: wounds following necrosis and sloughing of spontaneous tumours; assay: Resolution of wounds after sloughing of spontaneous tumours treated by intratumoural injection, canine; assay type: in vivo; conditions: for Average days from tumour slough to wound closure: Canine
Experimental: necrosis and sloughing of spontaneous tumours that had been treated by intratumoural injection of Compound 1 (30% 1,2 propanediol formulation at either 0.5 or 1.0 mg/mL concentration) in twenty-four companion animals are summarised in Table 17.
(§1) Note that all wounds were managed as open wounds and no bandaging, dressings, lotions or concomitant medications were used in any of these cases.

HaCaT cells = assay: HaCaT scratch repopulation with Mitomycin C (migration study); assay type: cell-based, human; conditions: with 1 μg/mL Mitomycin C; 0.001 to 1.0 μg/mL; p<0.05
[3] = tested on: wounds following necrosis and sloughing of spontaneous tumours; assay: Resolution of wounds after sloughing of spontaneous tumours treated by intratumoural injection, equine; assay type: in vivo; conditions: for Average days from tumour slough to wound closure: Equine
Experimental: Veterinary clinical data on speed of resolution of wounds that formed following necrosis and sloughing of spontaneous tumours that had been treated by intratumoural injection of Compound 1 (30% 1,2 propanediol formulation at either 0.5 or 1.0 mg/mL concentration) in twenty-four companion animals are summarised in Table 17.
as §1

[4] = 5 to 10% tissue deficit across the original wound area
[5] = <5% tissue deficit across the original wound area
[6] = >10% tissue deficit across the original wound area
[7] = Hair covers <50% of original wound area
[8] = Hair covers >50% of original wound area
[9] = Hair covers >95% of original wound area
[10] = Localised scar covering <10% of original wound area
[11] = Scarring covering >10% of original wound area
[12] = Scarring not obvious visually or by touch

## CC=C(C)C(=O)OC1C(C)C2(O)C(C3OC3(CO)C(O)C3(O)C(=O)C(C)=CC32)C2C(C)(C)C12OC(=O)C(C)CC (stereo not shown) [Compound 1, 12-tigloyl-13-(2-methylbutanoyl)-6,7-epoxy-4,5,9,12,13,20-hexahydroxy-1-tigliaen-3-one]
neutrophils
  production of reactive oxygen species (ROS): induced the significant production of reactive oxygen species (ROS) in a dose-dependent manner
[1]; Case 10, flying fox, head wound, 3 x 0.1 mL gel 5 mg/mL (Days 1, 10, 28), 14 days after the initial treatment
  wound status: significant tissue infill and remodeling
[1]; Case 10, 55 days after the initial treatment
  wound status: good tissue infill over the entire area of the original wound
[1]; Case 10, by 28 days
  eye function: capable of fully closing
[2]; [4]
  No. of dogs: Tissue deficit at wound site, Minor: 0
[2]; [5]
  No. of dogs: Tissue deficit at wound site, Nil or minimal: 15
[2]; [6]
  No. of dogs: Tissue deficit at wound site, Substantial: 0
[2]; wound size class 0.25 to 9 cm^2, 7 cases
  Average days from tumour slough to wound closure: 24 ± 16 days
[2]; wound size class 9 to 50 cm^2, 5 cases
  Average days from tumour slough to wound closure: 40 ± 15 days
[2]; wound size class >50 to 130 cm^2, 3 cases
  Average days from tumour slough to wound closure: 62 ± 18 days
[2]; [7]
  No. of dogs: Hair regrowth on wound area, Sparse: 7
[2]; [8]
  No. of dogs: Hair regrowth on wound area, Partial: 1
[2]; [9]
  No. of dogs: Hair regrowth on wound area, Full: 12
[2]; [10]
  No. of dogs: Scarring & skin thickening, Minor: 1
[2]; [11]
  No. of dogs: Scarring & skin thickening, Substantial: 1
[2]; [12]
  No. of dogs: Scarring & skin thickening, Nil or minimal: 13
[2]; healed wound site
  No. of dogs: Change in hair colour, No: 15
  No. of dogs: Change in hair colour, Yes: 0
  No. of dogs: Skin pigmentation, Hyperpigmentation: 0
  No. of dogs: Skin pigmentation, Hypopigmentation: 3
  No. of dogs: Skin pigmentation, Normal: 11
  No. of dogs: Skin pigmentation, Patchy: 1
HaCaT cells
  scratch repopulation and closure (migration study): enhanced
[3]; [4]
  No. of horses: Tissue deficit at wound site, Minor: 0
[3]; [5]
  No. of horses: Tissue deficit at wound site, Nil or minimal: 6
[3]; [6]
  No. of horses: Tissue deficit at wound site, Substantial: 0
[3]; wound size class 0.25 to 9 cm^2, 4 cases
  Average days from tumour slough to wound closure: 20 ± 12 days
[3]; wound size class 9 to 50 cm^2, 2 cases
  Average days from tumour slough to wound closure: 53 ± 22 days
[3]; [7]
  No. of horses: Hair regrowth on wound area, Sparse: 0
[3]; [8]
  No. of horses: Hair regrowth on wound area, Partial: 1
[3]; [9]
  No. of horses: Hair regrowth on wound area, Full: 5
[3]; [10]
  No. of horses: Scarring & skin thickening, Minor: 1
[3]; [11]
  No. of horses: Scarring & skin thickening, Substantial: 1
[3]; [12]
  No. of horses: Scarring & skin thickening, Nil or minimal: 4
[3]; healed wound site
  No. of horses: Change in hair colour, No: 3
  No. of horses: Change in hair colour, Yes: 3
  No. of horses: Skin pigmentation, Hyperpigmentation: 1
  No. of horses: Skin pigmentation, Hypopigmentation: 1
  No. of horses: Skin pigmentation, Normal: 3
  No. of horses: Skin pigmentation, Patchy: 1
